Measured values reported in article PMC10303166, “Design, Synthesis, Biological Evaluation, and Molecular Docking Study of 4,6-Dimethyl-5-aryl/alkyl-2-[2-hydroxy-3-(4-substituted-1-piperazinyl)propyl]pyrrolo[3,4-c]pyrrole-1,3(2H,5H)-diones as Anti-Inflammatory Agents with Dual Inhibition of COX and LOX” (Pharmaceuticals, 2023).
Like-named read-outs stand apart in the source and are kept apart here.

How the values were obtained:
COX-2 = molecular target: T1, COX-2 (Homo sapiens, UniProt P35354); assay: Colorimetric cyclooxygenase inhibition assay (COX-2); assay type: biochemical; details: for IC50: incubation for 2 min with the tested compounds at a concentration of 100 µM, mean (SD); for COX Selectivity Ratio IC50(COX-2)/IC50(COX-1): ratio COX-2 over COX-1
T1 sequence (P35354 18-604): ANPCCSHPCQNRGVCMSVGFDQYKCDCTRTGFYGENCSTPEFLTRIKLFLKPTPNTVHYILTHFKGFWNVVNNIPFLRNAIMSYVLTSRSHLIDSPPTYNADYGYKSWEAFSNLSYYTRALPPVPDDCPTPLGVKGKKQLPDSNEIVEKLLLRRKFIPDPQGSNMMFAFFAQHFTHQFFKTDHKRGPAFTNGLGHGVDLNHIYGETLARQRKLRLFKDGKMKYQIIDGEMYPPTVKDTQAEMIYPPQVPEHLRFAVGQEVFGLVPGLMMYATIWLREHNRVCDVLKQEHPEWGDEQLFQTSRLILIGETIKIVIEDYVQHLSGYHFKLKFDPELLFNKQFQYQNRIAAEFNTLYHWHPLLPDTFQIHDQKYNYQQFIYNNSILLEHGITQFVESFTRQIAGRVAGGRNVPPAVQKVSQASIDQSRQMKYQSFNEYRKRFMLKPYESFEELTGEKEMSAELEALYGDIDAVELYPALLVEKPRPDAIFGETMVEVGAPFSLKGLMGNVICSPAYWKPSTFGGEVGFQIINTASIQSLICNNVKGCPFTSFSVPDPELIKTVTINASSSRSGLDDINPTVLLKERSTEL
Protocol: COX peroxidase activity was evaluated by colorimetric evaluation of the occurrence of the oxidized form of N, N, N′, N′-tetramethyl-p-phenylenediamine (TMPD). The reduction of PGG2 (prostaglandin G2) to PGH2 is due to the oxidation of TMPD. […] The tested compounds wells included 110 μL Assay Buffer, 10 μL Hemin, and 40 μL solution of tested compounds, which was dissolved in DMSO in a final concentration of 10 mM. These samples were performed in three replicates for every compound. […] Subsequently, 20 μL substrate, i.e., arachidonic acid, was added. The entire plate was shaken for 5 min. The result is a change in color measured at 590 nm with a Varioskan LUX microplate reader (Thermo Scientific, Waltham, MA, USA).

NHDF cells = assay: SRB viability assay on NHDF cells; assay type: cell-based; details: Homo sapiens, 48 h incubation with NHDF cells, tested 10-100 µM, mean (SD)
Protocol: The NHDF (CC-2511) was purchased from Lonza, Basel. This line was derived from human dermal fibroblasts grown in 5% CO2 with 95% humidity at 37 °C. Cells were cultured with 10% FBS and 2 mM L-glutamine, 1.25 μg/mL Amphotericin B, and 100 μg/mL Gentamicin. Twice a week, the morphology and confluence were evaluated under microscopy. The confluence was above 70%, and the NHDF cells were subcultured with TrypLE solution.
The new 2-[2-hydroxy-3-(4-substituted-1-piperazinyl)propyl] derivatives were dissolved in DMSO to a concentration of 10 mM and stored at −20 °C. The samples were prepared in four different concentrations of compounds (10 µM, 25 µM, 50 µM, and 100 µM), so the concentration of DMSO for cells was […].
Viability evaluation was performed using the Sulforhodamine B (SRB) dye. The SRB assay was carried out 24 h after seeding. The culture plates were fixed with a cold TCA solution with a final concentration of 10% w/v for 1 h at 4–8 °C. This plate was T0 control. T0 is cell before treatment tested compounds. The supernatant was removed from the culture. The compounds were added and incubated for 48 h at 5% CO2, 95% humidity, and 37 °C. The culture was fixed with a cold TCA solution. The same condition was performed on the T0 plate. […] The absorbance was measured at 540 nm with a Varioskan LUX microplate reader (Thermo Scientific, Waltham, MA, USA).

[1] = set-up: method as in PMID 10683864; details: "hot plate" test; cited from earlier work
[2] = set-up: method as in PMID 10683864; details: "writhing syndrome" test; cited from earlier work
15-LOX = 15-LOX (Glycine max, UniProt P08170); assay: Lipoxygenase inhibitor screening assay; assay type: biochemical; details: 15-LO, arachidonic acid substrate; mean (SD)
15-LOX, sequence (P08170 whole entry): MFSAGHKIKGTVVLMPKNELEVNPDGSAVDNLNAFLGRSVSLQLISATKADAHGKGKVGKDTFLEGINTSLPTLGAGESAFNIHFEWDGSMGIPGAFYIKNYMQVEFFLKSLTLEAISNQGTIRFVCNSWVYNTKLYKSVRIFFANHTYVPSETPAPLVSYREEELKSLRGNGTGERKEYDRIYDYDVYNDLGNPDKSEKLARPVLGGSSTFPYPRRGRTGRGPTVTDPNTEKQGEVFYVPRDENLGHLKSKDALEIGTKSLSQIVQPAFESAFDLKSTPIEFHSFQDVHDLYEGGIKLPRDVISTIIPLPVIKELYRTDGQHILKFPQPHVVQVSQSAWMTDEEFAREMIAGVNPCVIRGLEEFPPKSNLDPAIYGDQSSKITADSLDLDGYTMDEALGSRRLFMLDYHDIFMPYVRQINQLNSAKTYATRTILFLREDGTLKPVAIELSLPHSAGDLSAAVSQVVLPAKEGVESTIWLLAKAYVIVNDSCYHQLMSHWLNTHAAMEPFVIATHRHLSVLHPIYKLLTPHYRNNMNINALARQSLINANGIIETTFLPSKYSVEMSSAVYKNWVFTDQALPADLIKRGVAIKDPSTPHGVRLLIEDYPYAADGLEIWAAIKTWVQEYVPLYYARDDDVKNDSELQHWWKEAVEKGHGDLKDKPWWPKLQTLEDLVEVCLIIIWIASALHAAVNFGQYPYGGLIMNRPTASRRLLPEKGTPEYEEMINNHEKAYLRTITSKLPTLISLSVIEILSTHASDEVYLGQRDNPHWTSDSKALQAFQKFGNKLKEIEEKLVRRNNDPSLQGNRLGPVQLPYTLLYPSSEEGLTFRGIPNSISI
Protocol: The assay detects and measures the hydroperoxides produced in the lipoxygenation reduction using a purified lipoxygenase (LO). Blank wells were prepared that contained 100 μL Assay buffer. The positive control included 10 μL 1x assay buffer and 90 μL 15-LO, but 100% of the Initial activity samples contained 90 μL 15-LO and 10 μL methanol. Samples with test compounds were prepared in triplicate, containing 90 µL of 15-LO and 10 µL of test compound at the assayed concentration of 10 mM. All samples prepared in this way were incubated for 5 min at room temperature. Subsequently, the substrate, i.e., arachidonic acid, was added. The entire test plate was shaken for 10 min. 100 µL of chromogen was added to the samples. The entire plate was shaken for 5 min. The absorbance was read at 490 nm in a VariuScan microplate reader.

Row | Compound | melting point | IC50 (COX-2) | COX Selectivity Ratio IC50(COX-2)/IC50(COX-1) (COX-2) | IC50 (NHDF cells) | Analgesic activity: acted up to the dose (fraction of LD50) [1] | Analgesic activity: acted up to the dose (fraction of LD50) [2] | Lipoxygenase Inhibition Assay IC50 LOX (15-LOX)
1 | Cc1c2c(c(C)n1-c1cccc(Cl)c1)C(=O)N(CC(O)CN1CCN(S(C)(=O)=O)CC1)C2=O (stereo not drawn) [3n, 4,6-dimethyl-5-(3-chlorophenyl)-2-[2-hydroxy-3-(N-methylsulphonylpiperazin-1-yl)-propyl]pyrrolo[3,4-c]pyrrole-1,3(2H,5H)-dione] | 119 to 122 °C | 60.25 ± 0.07 µM | 0.71 |  |  |  | 
2 | Cc1c2c(c(C)n1-c1ccccc1)C(=O)N(CC(O)CN1CCN(c3ccc(F)cc3F)CC1)C2=O (stereo not drawn) [3d, 4,6-dimethyl-5-phenyl-2-[2-hydroxy-3-[4-(2,4-difluorophenyl)-1-piperazinyl]propyl]pyrrolo[3,4-c]pyrrole-1,3(2H,5H)-dione] | 143 to 145 °C | 59.7 ± 0.03 µM | 0.73 | 86.55 ± 0.05 µM |  |  | 
3 | Cc1c2c(c(C)n1-c1ccccc1)C(=O)N(CC(O)CN1CCN(c3ncccn3)CC1)C2=O (stereo not drawn) [3i, 4,6-dimethyl-5-phenyl-2-[2-hydroxy-3-(4-pyrimidynylpiperazin-1-yl)propyl]pyrrolo[3,4-c]pyrrole-1,3(2H,5H)-dione] |  | 57.93 ± 0.02 µM | 0.71 |  |  |  | 
4 | CCCCn1c(C)c2c(c1C)C(=O)N(CC(O)CN1CCN(c3ccccc3)CC1)C2=O (stereo not drawn) [Compound I] |  |  |  |  | 1/20 | 1/80 | 
5 | CCCCn1c(C)c2c(c1C)C(=O)N(CC(O)CN1CCN(S(C)(=O)=O)CC1)C2=O (stereo not drawn) [3o, 4,6-dimethyl-5-butyl-2-[2-hydroxy-3-(N-methylsulphonylpiperazin-1-yl)-propyl]pyrrolo[3,4-c]pyrrole-1,3(2H,5H)-dione] | 139 to 141 °C | 59.42 ± 0.06 µM | 0.85 | 49.47 ± 0.05 µM |  |  | 
6 | Cc1c2c(c(C)n1-c1ccccc1)C(=O)N(CC(O)CN1CCN(c3cccc(C(F)(F)F)c3)CC1)C2=O (stereo not drawn) [3h, 4,6-dimethyl-5-phenyl-2-[2-hydroxy-3-[4-(m-trifluoromethylphenyl)piperazin-1-yl]propyl]pyrrolo[3,4-c]pyrrole-1,3(2H,5H)-dione] | 135 to 138 °C | 59.34 ± 0.04 µM | 0.75 |  |  |  | 
7 | CCOc1ccccc1N1CCN(CC(O)CN2C(=O)c3c(c(C)n(-c4cccc(Cl)c4)c3C)C2=O)CC1 (stereo not drawn) [3g, 4,6-dimethyl-5-(3-chlorophenyl)-2-[2-hydroxy-3-[4-(o-ethoxyphenyl)piperazin-1-yl]propyl]pyrrolo[3,4-c]pyrrole-1,3(2H,5H)-dione] | 129 to 131 °C | 60.55 ± 0.09 µM | 0.70 |  |  |  | 
8 | Cc1c2c(c(C)n1-c1ccccc1)C(=O)N(CC(O)CN1CCN(S(C)(=O)=O)CC1)C2=O (stereo not drawn) [3m, 4,6-dimethyl-5-phenyl-2-[2-hydroxy-3-(N-methylsulphonylpiperazin-1-yl)-propyl]pyrrolo[3,4-c]pyrrole-1,3(2H,5H)-dione] | 136 to 138 °C | 61 ± 0.04 µM | 0.80 |  |  |  | 
9 | CCCCn1c(C)c2c(c1C)C(=O)N(CC(O)CN1CCN(c3ccc(Br)cc3)CC1)C2=O (stereo not drawn) [3b, 4,6-dimethyl-5-butyl-2-[2-hydroxy-3-[4-(p-bromophenyl)piperazin-1-yl]propyl]pyrrolo[3,4-c]pyrrole-1,3(2H,5H)-dione] | 180 to 182 °C | 59.77 ± 0.05 µM | 0.76 |  |  |  | 
10 | CCCCn1c(C)c2c(c1C)C(=O)N(CC(O)CN1CCN(c3ccc(F)cc3F)CC1)C2=O (stereo not drawn) [3e, 4,6-dimethyl-5-butyl-2-[2-hydroxy-3-[4-(2,4-difluorophenyl)piperazin-1-yl]propyl]pyrrolo[3,4-c]pyrrole-1,3(2H,5H)-dione] | 139 to 141 °C | 56.43 ± 0.03 µM | 0.64 |  |  |  | higher activity against LOX than Zileuton
11 | CCCCn1c(C)c2c(c1C)C(=O)N(CC(O)CN1CCN(c3ncccn3)CC1)C2=O (stereo not drawn) [3k, 4,6-dimethyl-5-butyl-2-[2-hydroxy-3-(4-pyrimidynyl-1-piperazinyl)propyl]pyrrolo[3,4-c]pyrrole-1,3(2H,5H)-dione] | 182 to 184 °C | 60.83 ± 0.01 µM | 0.73 |  |  |  | 
12 | Cc1c2c(c(C)n1-c1ccccc1)C(=O)N(CC(O)CN1CCN(c3ccccc3)CC1)C2=O (stereo not drawn) [II] |  |  |  |  | 1/20 | 1/40 | 
13 | CCCCn1c(C)c2c(c1C)C(=O)N(CC(O)CN1CCN(c3ccccc3C#N)CC1)C2=O (stereo not drawn) [3f, 4,6-dimethyl-5-butyl-2-[2-hydroxy-3-[4-(o-cyjanophenyl)piperazin-1-yl]propyl]pyrrolo[3,4-c]pyrrole-1,3(2H,5H)-dione] | 154 to 156 °C | 60.36 ± 0.06 µM |  |  |  |  | higher activity against LOX than Zileuton
14 | CCCCn1c(C)c2c(c1C)C(=O)N(CC(O)CN1CCN(c3ccc(C)cc3)CC1)C2=O (stereo not drawn) [3a, 4,6-dimethyl-5-butyl-2-[2-hydroxy-3-[4-(p-methylphenyl)piperazin-1-yl]propyl]pyrrolo[3,4-c]pyrrole-1,3(2H,5H)-dione] | 116 to 118 °C | 60.16 ± 0.08 µM | 0.73 |  |  |  | 
15 | Cc1c2c(c(C)n1-c1cccc(Cl)c1)C(=O)N(CC(O)CN1CCN(c3ncccn3)CC1)C2=O (stereo not drawn) [3j, 4,6-dimethyl-5-(3-chlorophenyl)-2-[2-hydroxy-3-(4-pyrimidynylpiperazin-1-yl)propyl]pyrrolo[3,4-c]pyrrole-1,3(2H,5H)-dione] | 179 to 181 °C | 60.28 ± 0.02 µM | 0.79 |  |  |  | 
16 | Cc1c2c(c(C)n1-c1ccccc1)C(=O)N(CC(O)CN1CCN(c3ccc(F)cc3)CC1)C2=O (stereo not drawn) [3c, 4,6-dimethyl-5-phenyl-2-[2-hydroxy-3-[4-(p-fluorophenyl)piperazin-1-yl]propyl]pyrrolo[3,4-c]pyrrole-1,3(2H,5H)-dione] | 182 to 184 °C | 60.05 ± 0.03 µM | 0.76 |  |  |  | 
